Measured values: patent US8258160B2, “SCD1 inhibitors triazole and tetrazole compounds” (Novartis AG, priority 2006, dated 2012)

How the values were obtained:
[1] = biological target: T1, stearoyl-CoA desaturase (SCD1) (Mus musculus, UniProt P13516); experiment: SCD microsomal assay: release of 3H2O from [9,10-3H]stearoyl-CoA in mouse liver microsomes; type: biochemical; conditions: 15 min incubation, 25° C.
T1 construct: Reactions are started by adding 50 μL of microsomes (1.25 mg/mL); from tissue; host or cells: liver microsomes of male ICR outbred mice on a high-carbohydrate, low-fat diet
T1 sequence (P13516 1-355): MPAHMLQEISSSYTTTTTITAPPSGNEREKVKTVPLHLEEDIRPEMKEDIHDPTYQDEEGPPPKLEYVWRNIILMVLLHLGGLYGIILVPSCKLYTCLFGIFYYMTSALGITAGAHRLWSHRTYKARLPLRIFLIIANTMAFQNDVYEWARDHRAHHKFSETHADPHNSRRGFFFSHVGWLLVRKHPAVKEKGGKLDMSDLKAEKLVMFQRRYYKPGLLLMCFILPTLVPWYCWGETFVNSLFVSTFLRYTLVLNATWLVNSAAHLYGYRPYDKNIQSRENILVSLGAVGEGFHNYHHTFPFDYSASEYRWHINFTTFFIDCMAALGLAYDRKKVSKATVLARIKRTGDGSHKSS
Description: The identification of compounds of the invention as SCD inhibitors was readily accomplished using the SCD enzyme and microsomal assay procedure described in Shanklin J. and Summerville C., Proc. Natl. Acad. Sci. USA (1991), Vol. 88, pp. 2510-2514.
The identification of compounds of the invention as SCD inhibitors was readily accomplished using the SCD microsomal assay procedure described in Shanklin J. and Summerville C., Proc. Natl. Acad. Sci. USA (1991), Vol. 88, pp. 2510-2514.
Male ICR outbread mice, on a high-carbohydrate, low fat diet, under light halothane (15% in mineral oil) anesthesia are sacrificed by exsanguination during periods of high enzyme activity. Livers are immediately rinsed with cold 0.9% NaCl solution, weighed and minced with scissors. All procedures are performed at 4° C. unless specified otherwise. Livers are homogenized in a solution (1/3 w/v) containing 0.25 M sucrose, 62 mM potassium phosphate buffer (pH 7.0), 0.15 M KCl, 15 mM N-acetylcysteine, 5 mM MgCl2, and 0.1 mM EDTA using 4 strokes of a Potter-Elvehjem tissue homogenizer. The homogenate is centrifuged at 10,400×g for 20 min to eliminate mitochondria and cellular debris. The supernatant is filtered through a 3-layer cheesecloth and centrifuged at 105,000×g for 60 min. The microsomal pellet is gently resuspended in the same homogenization solution with a small glass/teflon homogenizer and stored at −70° C. The absence of mitochondrial contamination is enzymatically assessed. The protein concentration is measured using bovine serum albumin as the standard.
Desaturase activity is measured as the release of ^3H2O from [9,10-^3H]stearoyl-CoA. Reactions per assay point conditions are as follows: 2 μL 1.5 mM stearoyl-CoA, 0.25 μL 1 mCi/mL ^3H stearoyl CoA, 10 μL 20 mM NADH, 36.75 μL 0.1 M PK buffer (K2HPO4/NaH2PO4, pH 7.2). The test compound or control solution is added in a 1 μL volume. Reactions are started by adding 50 μL of microsomes (1.25 mg/mL). The plates are mixed and after 15 min incubation on a heating block (25° C.), the reactions are stopped by the addition of 10 μL 60% PCA. An aliquot of 100 μL is then transferred to a filter plate pretreated with charcoal and the plate centrifuged at 4000 rpm for 1 min. The flow through containing the ^3H2O released by the SCD1 desaturation reaction is added to scintillation fluid and the radioactivity measured in a Packard TopCount. The data is analysed to identify the IC50 for test compounds and reference compounds. […] The activity was defined in terms of % SCD enzyme activity remaining at the desired concentration of the test compound or as the IC50 concentration. The IC50 (affinity) of the example compounds toward the stearoyl-CoA desaturase is comprised between around 20 μM and 0.0001 μM or between around 5 μM and 0.0001 μM or between around 1 μM and 0.0001 μM.

Row | SMILES | IC50 [1] [nM] | melting point
1 | Cc1nc(-c2nnnn2Cc2ccc(C(F)(F)F)cc2)sc1C(=O)NCc1cccnc1 (single isomer, unassigned) [Example 7.2, 4-Methyl-N-(pyridin-3-ylmethyl)-2-(1-(4-(trifluoromethyl)benzyl)-1H-tetrazol-5-yl)thiazole-5-carboxamide] | 160 | 175 to 176 °C
2 | Cc1nc(-c2nnn(Cc3ccc(F)cc3)n2)sc1C(=O)NCc1cccnc1 (single isomer, unassigned) [Example 7.1, 2-(2-(4-Fluorobenzyl)-2H-tetrazol-5-yl)-4-methyl-N-(pyridin-3-ylmethyl)thiazole-5-carboxamide] | 510 | 148 to 149 °C
3 | Cc1nc(-c2nnn(CC3CC3)n2)sc1C(=O)NCc1cccnc1 (single isomer, unassigned) [Example 7.3, 2-(2-(Cyclopropylmethyl)-2H-tetrazol-5-yl)-4-methyl-N-(pyridin-3-ylmethyl)thiazole-5-carboxamide] | 310 | 149 to 150 °C
4 | Cc1nc(-c2cn(CCc3ccc(F)cc3)nn2)sc1C(=O)NCc1ccccc1 [Example 1, N-benzyl-2-(1-(4-fluorophenethyl)-1H-1,2,3-triazol-4-yl)-4-methylthiazole-5-carboxamide] | 20 | 181 to 182 °C
5 | Cc1nc(-c2cc(Cc3ccccc3)no2)sc1C(=O)NCc1ccccc1 [Example 27, N-benzyl-2-(3-benzylisoxazol-5-yl)-4-methylthiazole-5-carboxamide] | 600 | 103 to 104 °C
6 | Cc1nc(-n2cc(CCC3CCCCC3)nn2)sc1C(=O)NCc1ccccc1 [Example 10.14, N-benzyl-2-(4-(2-cyclohexylethyl)-1H-1,2,3-triazol-1-yl)-4-methylthiazole-5-carboxamide] | 240 | 82 to 84 °C

More lines, in order of falling IC50 [1], values ahead:

Row | IC50 [1] [nM] | melting point | SMILES
7 | 300 | 82 °C (dec.) | Cc1cc(-c2n[nH]c(Cc3ccccc3)n2)sc1C(=O)NCc1cccnc1 [Example 26, 5-(5-benzyl-1H-1,2,4-triazol-3-yl)-3-methyl-N-(pyridin-3-ylmethyl)thiophene-2-carboxamide]
8 | 120 | 149 to 150 °C | Cc1nc(-c2cn(CCc3ccc(F)cc3)nn2)sc1C(=O)NCc1cccnc1 [Example 4.3, 2-(1-(4-fluorophenethyl)-1H-1,2,3-triazol-4-yl)-4-methyl-N-(pyridin-3-ylmethyl)thiazole-5-carboxamide]
9 | 60 | 139 to 141 °C | Cc1nc(-n2cc(Cc3ccccc3)nn2)sc1C(=O)NCc1ccccc1 [Example 10.1, N-benzyl-2-(4-benzyl-1H-1,2,3-triazol-1-yl)-4-methylthiazole-5-carboxamide]
10 | 30 | 108 to 109 °C | Cc1nc(-c2cn(Cc3ccccc3)nn2)sc1C(=O)NCc1ccccc1 [Example 1.1, N-benzyl-2-(1-benzyl-1H-1,2,3-triazol-4-yl)-4-methylthiazole-5-carboxamide]
11 | 10 | 198 to 201 °C | Cc1nc(-n2cc(C(=O)NCc3ccc(F)cc3)nn2)sc1C(=O)NCc1ccccc1 [Example 18.1, N-benzyl-2-(4-(4-fluorobenzylcarbamoyl)-1H-1,2,3-triazol-1-yl)-4-methylthiazole-5-carboxamide]
